Test results taken from US11427861B2, “Methods for identifying and modulating co-occurant cellular phenotypes” (MASSACHUSETTS INSTITUTE OF TECHNOLOGY, priority 2016, dated 2022).

Test system: dendritic cells
Experiment: Induction of the functional dendritic cell subset by immunomodulators
Format: cell-based, human
Details: dendritic cells of normal donors; TLR3 ligand as immunomodulator

poly I:C
population of the functional subset of dendritic cells (CD64 and PD-L1 surface expression): induced a larger population of the functional subset of dendritic cells
